According to US10092584B2 (Achillion Pharmaceuticals, Inc., priority 2015, dated 2018):

Molecular target: T1, Human Factor D (Homo sapiens, UniProt P00746)
T1 construct: purified from human serum; purchased Complement Technology, Inc; host or cells: human serum
Assay: Human Factor D assay (Example 8)
Format: biochemical
Conditions: Table 3; Human Factor D 80 nM, substrate Z-L-Lys-SBzl; read-out: IC50 (Stars)
In short: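 First, compound at various concentrations is mixed with 80 nM (final) human serum Factor D in 50 mM Tris, 1M NaCl, pH 7.5 for 5 min at room temperature.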

T1 sequence (P00746 26-253): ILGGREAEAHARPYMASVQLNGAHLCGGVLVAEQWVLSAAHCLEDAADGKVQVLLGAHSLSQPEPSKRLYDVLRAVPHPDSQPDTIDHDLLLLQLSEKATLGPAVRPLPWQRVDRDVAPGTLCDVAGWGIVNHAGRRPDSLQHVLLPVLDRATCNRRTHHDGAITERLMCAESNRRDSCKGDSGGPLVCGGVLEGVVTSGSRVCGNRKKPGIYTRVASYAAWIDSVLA

IC50, < 1000 nM:
C[C@@]12C[C@@H](C(=O)Nc3cccc(-c4ccc5nc[nH]c5c4Cl)c3F)N(C(=O)Cn3nc(C(N)=O)c4ccccc43)[C@@H]1C2 [Compound 453, 1-(2-((1R,3S,5R)-3-((3-(7-chloro-1H-benzo[d]imidazol-6-yl)-2-fluorophenyl)car-bamoyl)-5-methyl-2-azabicyclo[3.1.0]hexan-2-yl)-2-oxoethyl)-1H-indazole-3-carboxamide]
CC(=O)c1nn(CC(=O)N2[C@@H]3C[C@@H]3C[C@H]2C(=O)Nc2cccc(-c3ccc4nc[nH]c4c3Cl)c2F)c2cnc(C)cc12 [Compound 454, (1R,3S,5R)-2-(2-(3-acetyl-5-methyl-1H-pyrazolo[3,4-c]pyridin-1-yl)acetyl)-N-(3-(7-chloro-1H-benzo[d]imidazol-6-yl)-2-fluorophenyl)-2-azabicyclo[3.1.0] hexane-3-carboxamide]
CC(=O)c1nn(CC(=O)N2C[C@H](F)C[C@H]2C(=O)Nc2cccc(-c3ccc4nc[nH]c4c3F)c2F)c2ccccc12 [Compound 455, (2S,4R)-1-(2-(3-acetyl-1H-indazol-1-yl)acetyl)-4-fluoro-N-(2-fluoro-3-(7-fluoro-1H-benzo[d]imidazol-6-yl)phenyl)pyrrolidine-2-carboxamide]
NC(=O)c1nn(CC(=O)N2C[C@H](F)C[C@H]2C(=O)Nc2cccc(-c3ccc4nc[nH]c4c3F)c2F)c2ccccc12 [Compound 456, 1-(2-((2S,4R)-4-fluoro-2-((2-fluoro-3-(7-fluoro-1H-benzo[d]imidazol-6-yl)phenyl)carba-moyl)pyrrolidin-1-yl)-2-oxoethyl)-1H-indazole-3-carboxamide]
CC(=O)c1nn(CC(=O)N2C[C@H](F)C[C@H]2C(=O)Nc2cccc(-c3cccc4nc[nH]c34)c2F)c2ccccc12 [Compound 457, (2S,4R)-N-(3-(1H-benzo[d]imidazol-7-yl)-2-fluorophenyl)-1-(2-(3-acetyl-1H-indazol-1-yl)acetyl)-4-fluoropyrrolidine-2-carboxamide]
NC(=O)c1nn(CC(=O)N2C[C@H](F)C[C@H]2C(=O)Nc2cccc(-c3cc(Cl)c4nc[nH]c4c3)c2F)c2ccccc12 [Compound 458, 1-(2-((2S,4R)-2-(3-(4-chloro-1H-benzo[d]imidazol-6-yl)-2-fluorophenylcarb-amoyl)-4-fluoropyrrolidin-1-yl)-2-oxoethyl)-1H-indazole-3-carboxamide]
CC(=O)c1nn(CC(=O)N2C[C@H](F)C[C@H]2C(=O)Nc2cccc(-c3ccc4[nH]cnc4c3Cl)c2F)c2cnccc12 [Compound 459, (2S,4R)-1-(2-(3-acetyl-1H-pyrazolo[3,4-c]pyridin-1-yl)acetyl)-N-(3-(4-chloro-1H-benzo[d]imidazol-5-yl)-2-fluorophenyl)-4-fluoropyrrolidine-2-carboxamide]
CC(=O)c1cn(CC(=O)N2C[C@H](F)C[C@H]2C(=O)Nc2cccc(-c3ccc4[nH]cnc4c3Cl)c2F)c2ccccc12 [Compound 460, (2S,4R)-1-(2-(3-acetyl-1H-indol-1-yl)acetyl)-N-(3-(4-chloro-1H-benzo[d]imidazol-5-yl)-2-fluorophenyl)-4-fluoropyrrolidin-2-carboxamide]
CC(=O)c1nn(CC(=O)N2C[C@H](F)C[C@H]2C(=O)Nc2cccc(-c3ccc4[nH]cnc4c3Cl)c2F)c2ccccc12 [Compound 461, (2S,4R)-1-(2-(3-acetyl-1H-indazol-1-yl)acetyl)-N-(3-(4-chloro-1H-benzo[d]imidazol-5-yl)-2-fluorophenyl)-4-fluoropyrrolidin-2-carboxamide]
CC(=O)c1nn(CC(=O)N2[C@@H]3C[C@@H]3C[C@H]2C(=O)Nc2cccc(-c3ccc4[nH]cnc4c3Cl)c2F)c2ccccc12 [Compound 463, (1R,3S,5R)-2-(2-(3-acetyl-1H-indazol-1-yl)acetyl)-N-(3-(4-chloro-1H-benzo[d]imidazol-5-yl)-2-fluorophenyl)-2-azabicyclo[3.1.0] hexane-3-carboxamide]
